Data from article PMC9774391 (ACS Omega, 2022).

What was measured:
AChE [1] = target: T1, AChE (Homo sapiens, UniProt P22303); test: biochemical; details: for inhibition at 1000 µM: 10^–3 M; for inhibition at 100 µM: 10^–4 M; for inhibition at 10 µM: 10^–5 M; for inhibition at 1 µM: 10^–6 M; for inhibition at 0.1 µM: 10^–7 M; for inhibition at 0.01 µM: 10^–8 M; for inhibition at 0.001 µM: 10^–9 M
Procedure: (§1) According to the modified Ellman approach outlined in our team’s earlier work, the AChE and BChE inhibitory activities of the obtained compounds were evaluated.[18]−[21]

BChE = BChE (Homo sapiens, UniProt P06276); test: biochemical; details: for inhibition at 1000 µM: 10^–3 M; for inhibition at 100 µM: 10^–4 M
Procedure: as §1

MAO-A [2] = target: T2, MAO-A (Homo sapiens, UniProt P21397); test: In vitro MAO-A inhibition assay (fluorometric); type: biochemical; details: for inhibition at 1000 µM: 10^–3 M; for inhibition at 10 µM: 10^–5 M; for inhibition at 1 µM: 10^–6 M; for inhibition at 0.1 µM: 10^–7 M; for inhibition at 0.01 µM: 10^–8 M; for inhibition at 0.001 µM: 10^–9 M; for fold stronger MAO-A inhibition compared to moclobemide: ratio of IC50 values
T2 sequence (P21397 1-527): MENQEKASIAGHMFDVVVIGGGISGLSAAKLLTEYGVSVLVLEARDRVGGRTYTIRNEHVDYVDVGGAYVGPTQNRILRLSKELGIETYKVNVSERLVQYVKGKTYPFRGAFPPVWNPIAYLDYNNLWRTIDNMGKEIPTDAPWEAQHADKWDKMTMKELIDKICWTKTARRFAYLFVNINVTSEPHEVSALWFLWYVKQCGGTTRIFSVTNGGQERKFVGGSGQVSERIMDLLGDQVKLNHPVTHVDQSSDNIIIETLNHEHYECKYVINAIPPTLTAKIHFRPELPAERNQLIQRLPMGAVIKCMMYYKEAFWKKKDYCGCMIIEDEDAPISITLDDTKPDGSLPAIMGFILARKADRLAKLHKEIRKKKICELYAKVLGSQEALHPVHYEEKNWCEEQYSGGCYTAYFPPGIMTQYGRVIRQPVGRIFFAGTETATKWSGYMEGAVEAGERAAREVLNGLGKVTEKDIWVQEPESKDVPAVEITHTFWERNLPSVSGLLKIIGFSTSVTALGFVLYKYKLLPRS

MAO-B = target: T3, MAO-B (Homo sapiens, UniProt P27338); test: In vitro MAO-B inhibition assay (fluorometric); type: biochemical; details: for inhibition at 1000 µM: 10^–3 M; for inhibition at 100 µM: 10^–4 M; for inhibition at 10 µM: 10^–5 M; for inhibition at 1 µM: 10^–6 M; for inhibition at 0.1 µM: 10^–7 M; for inhibition at 0.01 µM: 10^–8 M; for inhibition at 0.001 µM: 10^–9 M
T3 sequence (P27338 1-520): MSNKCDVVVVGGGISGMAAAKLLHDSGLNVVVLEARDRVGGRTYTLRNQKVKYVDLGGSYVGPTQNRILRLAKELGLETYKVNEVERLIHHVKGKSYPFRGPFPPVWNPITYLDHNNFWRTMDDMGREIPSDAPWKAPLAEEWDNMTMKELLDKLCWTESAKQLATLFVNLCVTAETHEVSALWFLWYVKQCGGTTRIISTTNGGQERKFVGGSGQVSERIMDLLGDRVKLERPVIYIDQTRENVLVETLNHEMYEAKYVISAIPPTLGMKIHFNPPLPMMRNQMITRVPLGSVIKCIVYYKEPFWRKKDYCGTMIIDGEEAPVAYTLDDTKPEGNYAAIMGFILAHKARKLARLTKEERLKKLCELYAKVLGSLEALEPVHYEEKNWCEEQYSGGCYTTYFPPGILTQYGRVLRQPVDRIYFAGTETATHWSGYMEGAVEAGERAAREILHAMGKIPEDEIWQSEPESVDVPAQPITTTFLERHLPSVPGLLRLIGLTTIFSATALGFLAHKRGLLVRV

AChE [3] = target: T1, AChE; test: Enzyme kinetics on AChE (Lineweaver–Burk); type: biochemical
Procedure: (§2) The experimental procedures used in the kinetic investigations were identical to those used in the inhibition experiments. […]. Acetylthiocholine iodide (ATC) and butyrylthiocholine iodide (BTC) solutions were utilized as the substrates for the ChE enzymes, with serial dilutions at six different concentrations (600, 300, 150, 75, 37.5, and 18.75 μM). The tyramine substrate solution (concentrations ranging from 20 to 0.625 μM) was produced for the MAO enzymes at six different concentrations. Separate measurements were conducted both with and without an inhibitor. Using the Microsoft Office Excel 2013 program, the resulting absorbance values were compared to various substrate concentrations, and Lineweaver–Burk plots were created.[19]−[22]
(§3) The absorbance data from the experiments and the substrate concentrations were used to generate Lineweaver–Burk plots. The graphic’s x-axis stands for 1/[S] […] […]. The intersection of these four lines on the diagram was used to define the type of substrate and inhibitor reaction against the enzyme.
(§4) Reversible and irreversible inhibition of enzymes are the two categories that inhibition is commonly subdivided into. In irreversible inhibition, the inhibitor either creates a recalcitrant complex structure or establishes a covalent bond with the enzyme. […]

[4] = DPPH free-radical scavenging activity assay; details: serial dilution 10^–3–10^–9 M; read-out: IC50 on DPPH antioxidant activity
Procedure: This approach is based on evaluating the free-radical scavenging abilities of the stable 1,1-diphenyl-2-picrylhydrazyl (DPPH) radical. To create the DPHH solution, 9.86 mg of DPPH was weighed and diluted to 25 mL with methanol. The test wells were then filled with 100 μL of the DPPH solution and 100 μL of the test solutions. Only 200 μL of methanol was used for the blank reading, while the control reading required the usage of 100 μL each of methanol and the DPPH solution. Following incubation, a spectrophotometric measurement at 517 nm was carried out.[26],[27]

Beta Amyloid 1–42 (Aβ42) = target: T4, Beta Amyloid 1–42 (Aβ42) (Homo sapiens, UniProt P05067); test: Beta Amyloid 1–42 (Aβ42) inhibitor screening assay; type: biochemical; details: for inhibition at 1000 µM: 10^–3 M; for inhibition at 1000 µM / inhibition at 100 µM: read-out: % β-amyloid plaque inhibition; for inhibition at 100 µM: 10^–4 M; for IC50: read-out: IC50 on β-amyloid plaque aggregation
T4 construct: The Beta Amyloid 1–42 (Aβ42) Ligand Screening Assay kit; purchased BioVision, Milpitas, CA
Description: The Beta Amyloid 1–42 (Aβ42) Ligand Screening Assay kit (BioVision, Milpitas, CA) technique based on the fluorometric approach served as the basis for the experimental process.[21],[28],[29]

Cytotoxicity test (MTT) = type: cell-based; details: NIH/3T3 mouse embryonic fibroblast cells (ATCC CRL-1658), NIH/3T3 mouse fibroblast healthy cell line
Procedure: The NIH/3T3 cells were incubated according to the manufacturer’s recommendations. In 96-well plates, NIH/3T3 cells were seeded at a density of 1 × 10^4 cells per well. The MTT test was conducted in line with the previously mentioned standards.[19],[22],[23],[28],[30]

MAO-A [5] = target: T2, MAO-A; test: Enzyme kinetics on MAO-A (Lineweaver–Burk); type: biochemical
Procedure: as §2, §3, §4

T4 sequence (P05067 672-713 limits assumed): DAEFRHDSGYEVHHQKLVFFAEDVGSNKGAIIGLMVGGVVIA
Chain of BChE (P06276 29-602): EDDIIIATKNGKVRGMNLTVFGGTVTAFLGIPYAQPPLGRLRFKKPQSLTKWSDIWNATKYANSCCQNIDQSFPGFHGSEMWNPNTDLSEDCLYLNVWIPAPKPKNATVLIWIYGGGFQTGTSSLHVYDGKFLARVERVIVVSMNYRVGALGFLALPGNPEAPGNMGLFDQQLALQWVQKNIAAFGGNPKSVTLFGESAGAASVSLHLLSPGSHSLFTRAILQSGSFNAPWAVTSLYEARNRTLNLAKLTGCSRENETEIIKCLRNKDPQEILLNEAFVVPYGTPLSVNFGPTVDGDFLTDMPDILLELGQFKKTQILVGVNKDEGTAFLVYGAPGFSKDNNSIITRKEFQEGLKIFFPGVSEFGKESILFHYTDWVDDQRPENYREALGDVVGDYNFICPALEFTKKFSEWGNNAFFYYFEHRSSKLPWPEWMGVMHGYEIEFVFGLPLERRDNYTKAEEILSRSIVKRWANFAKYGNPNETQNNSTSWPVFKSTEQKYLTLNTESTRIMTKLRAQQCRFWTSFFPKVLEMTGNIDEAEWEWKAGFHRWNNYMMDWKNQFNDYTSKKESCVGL
T1 sequence (P22303 32-614): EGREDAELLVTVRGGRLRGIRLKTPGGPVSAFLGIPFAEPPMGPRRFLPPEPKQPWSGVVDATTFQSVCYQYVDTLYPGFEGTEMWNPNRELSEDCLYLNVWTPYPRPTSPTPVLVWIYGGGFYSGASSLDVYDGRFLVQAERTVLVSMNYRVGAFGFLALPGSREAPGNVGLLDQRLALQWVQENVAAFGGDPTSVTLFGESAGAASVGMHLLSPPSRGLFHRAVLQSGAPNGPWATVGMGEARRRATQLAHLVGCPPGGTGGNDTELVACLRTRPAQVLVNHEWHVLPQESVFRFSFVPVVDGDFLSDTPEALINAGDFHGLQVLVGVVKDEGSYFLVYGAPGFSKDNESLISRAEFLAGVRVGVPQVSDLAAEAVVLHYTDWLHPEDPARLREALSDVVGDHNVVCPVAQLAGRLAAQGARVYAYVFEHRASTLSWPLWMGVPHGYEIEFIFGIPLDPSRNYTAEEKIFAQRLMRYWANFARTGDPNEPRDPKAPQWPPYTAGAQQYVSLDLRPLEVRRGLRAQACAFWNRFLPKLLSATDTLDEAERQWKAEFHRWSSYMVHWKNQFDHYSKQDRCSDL

Row | Compound | IC50 (AChE [1]) | inhibition at 1000 µM (AChE [1]) | inhibition at 100 µM (AChE [1]) | inhibition at 10 µM (AChE [1]) | inhibition at 1 µM (AChE [1]) | inhibition at 0.1 µM (AChE [1]) | inhibition at 0.01 µM (AChE [1]) | inhibition at 0.001 µM (AChE [1]) | inhibition at 1000 µM (BChE) | inhibition at 100 µM (BChE) | inhibition at 1000 µM (MAO-A [2]) | IC50 (MAO-B) | inhibition at 1000 µM (MAO-B) | inhibition at 100 µM (MAO-B) | inhibition at 10 µM (MAO-B) | inhibition at 1 µM (MAO-B) | inhibition at 0.1 µM (MAO-B) | inhibition at 0.01 µM (MAO-B) | inhibition at 0.001 µM (MAO-B) | IC50 [4] | other results
1 | CCCN(C)CC(=O)Nc1ccc(/C=C2\Cc3ccc(OC)cc3C2=O)cc1 [D29] | 22.4 ± 0.8 nM | 97.2 ± 1.32% | 94.3 ± 1.46% | 91.8 ± 1.21% | 88.3 ± 1.02% | 75.6 ± 0.974% | 34.3 ± 0.857% | 20.1 ± 0.357% | 61.1 ± 0.99% | 26.914 ± 0.019% | ≥ 90% | 41.2 ± 1.8 nM | 91.8 ± 1.37% | 87.6 ± 1.25% | 82.2 ± 1.21% | 74.2 ± 1.3% | 66 ± 1.84% | 40.3 ± 0.745% | 20.4 ± 0.628% | 188 ± 8 nM | IC50 (MAO-A [2]): 112 ± 4.2 nM; inhibition at 10 µM (MAO-A [2]): 77.4 ± 1.13%; inhibition at 1 µM (MAO-A [2]): 67.3 ± 1.08%; inhibition at 0.1 µM (MAO-A [2]): 49.4 ± 0.567%; inhibition at 0.01 µM (MAO-A [2]): 34 ± 0.422%; inhibition at 0.001 µM (MAO-A [2]): 24.6 ± 0.328%; fold stronger MAO-A inhibition compared to moclobemide (MAO-A [2]): 50 ×; type of inhibition of AChE (AChE [3]; Lineweaver–Burk plots): mixed inhibition; Ki (AChE [3]; secondary plot of Lineweaver–Burk data, read-out: steady-state inhibition constant (Ki), AChE): 18.5 nM; inhibition at 1000 µM (Beta Amyloid 1–42 (Aβ42)): 80.3 ± 2.05%; inhibition at 100 µM (Beta Amyloid 1–42 (Aβ42)): 71.9 ± 1.88%; IC50 (Beta Amyloid 1–42 (Aβ42)): 124 ± 4.9 nM; IC50 (Cytotoxicity test (MTT)): 73.6 ± 1.76 µM
2 | CCCN(C)CC(=O)Nc1ccc(/C=C2\Cc3cc(OC)c(OC)cc3C2=O)cc1 [D30] | 25.7 ± 0.9 nM | 98.2 ± 1.37% | 96.6 ± 1.28% | 91.8 ± 1.21% | 88.3 ± 1.1% | 74.3 ± 1.05% | 36.6 ± 0.627% | 16.4 ± 0.421% | 99.6 ± 2.02% | 46.43 ± 0.408% | 74.1 ± 2.09% | 45.6 ± 1.7 nM | 97.5 ± 1.39% | 90.2 ± 1.47% | 82.5 ± 1.38% | 74.6 ± 1.29% | 66 ± 0.966% | 38.1 ± 0.458% | 19.8 ± 0.632% | 246 ± 11 nM | inhibition at 100 µM (MAO-A [2]; 10^–4 M): 28.3 ± 1.08%; inhibition at 1000 µM (Beta Amyloid 1–42 (Aβ42)): 89.6 ± 1.86%; inhibition at 100 µM (Beta Amyloid 1–42 (Aβ42)): 81.5 ± 1.96%; IC50 (Beta Amyloid 1–42 (Aβ42)): 178 ± 7.4 nM; IC50 (Cytotoxicity test (MTT)): 0.601 ± 0.0145 µM
3 | CCCN(C)CC(=O)Nc1ccc(/C=C2\Cc3cc(OC)ccc3C2=O)cc1 [D28] | 24.8 ± 1 nM | 98.6 ± 1.21% | 95.3 ± 1.31% | 92.8 ± 1.03% | 87.1 ± 1.06% | 72 ± 0.958% | 36 ± 0.623% | 19.4 ± 0.455% | 61.3 ± 0.997% | 36.6 ± 0.667% | 89.6 ± 1.29% | 40.9 ± 1.9 nM | 92.6 ± 1.33% | 89.3 ± 1.24% | 80.5 ± 1.01% | 75.2 ± 1.08% | 67 ± 0.958% | 41.5 ± 0.547% | 18.8 ± 0.421% | 210 ± 10 nM | IC50 (MAO-A [2]): 111 ± 4.7 nM; inhibition at 10 µM (MAO-A [2]): 72.7 ± 1.11%; inhibition at 1 µM (MAO-A [2]): 63.4 ± 1.08%; inhibition at 0.1 µM (MAO-A [2]): 59 ± 0.895%; inhibition at 0.01 µM (MAO-A [2]): 39.2 ± 0.714%; inhibition at 0.001 µM (MAO-A [2]): 18.7 ± 0.521%; fold stronger MAO-A inhibition compared to moclobemide (MAO-A [2]): 50 ×; type of inhibition of MAO-A (MAO-A [5]; Lineweaver–Burk plots): noncompetitive inhibition; Ki (MAO-A [5]; secondary plot of Lineweaver–Burk data, read-out: steady-state inhibition constant (Ki), MAO-A): 107 nM; inhibition at 1000 µM (Beta Amyloid 1–42 (Aβ42)): 82.7 ± 1.68%; inhibition at 100 µM (Beta Amyloid 1–42 (Aβ42)): 75.6 ± 1.04%; IC50 (Beta Amyloid 1–42 (Aβ42)): 147 ± 5.3 nM; IC50 (Cytotoxicity test (MTT)): 6.52 ± 0.175 µM
